Assay results taken from patent US20220378706A1, “PHARMACEUTICAL COMPOSITION COMPRISING PDE9 INHIBITOR” (Eisai R&D Management Co., Ltd., priority 2017, published 2022).
Where “and” joins values, the source holds several entries; their conditions need not be identical. Identical values can stand only once. Like-named read-outs stand apart in the source and are kept apart here.

Assay: Single dose clinical study: plasma Compound A pharmacokinetics
Assay type: in vivo, human
Conditions: for AUC(0-inf) / Cmax / Vd/F / half-life / Tmax / AUC(0-t): human, po; for AUC(0-inf): read-out: AUC(0-inf) GM; for Tmax: read-out: tmax Median; for tlag Median (Min, Max): Part B 100 mg cohort
Method: This was a single center, single dose, randomized, double blind, placebo controlled study in healthy subjects. It consisted of 4 parts: Parts A, B, C, and D. Each of the four study parts had 2 phases: Prerandomization Phase and Randomization Phase. The Prerandomization Phase lasted up to 30 days and consisted of a Screening Period and a Baseline Period, during which each subject's study eligibility was determined and baseline assessments were performed.
In Part A, there were 8 sequential cohorts of healthy adult subjects (18-50 years of age). Subjects were randomly assigned to Compound A or placebo in a ratio of 6:2, respectively. Subjects in the Compound A cohorts were treated with single ascending doses of 10, 25, 50, 100, 200, 400, 800, or 1200 mg.
In Part B, there were 4 cohorts of healthy adult subjects (18-50 years of age). There were 8 subjects in Cohort 1, with 6 subjects randomly assigned to receive single doses of Compound A (400 mg) and 2 subjects randomly assigned to receive placebo. There were 7 subjects in Cohort 2 and Cohort 3, each with 6 subjects randomly assigned to receive single doses of Compound A (100 and 200 mg, respectively) and 1 subject randomly assigned to receive placebo. The dose of 100 mg selected in Cohort 2 was based on preliminary analysis of Cohort 1 data; this dose was predicted from PK/PD modeling to achieve a sustained CSF cGMP increase from baseline of approximately 200% when administered to steady state, and thereby provided a potentially therapeutic dose for further evaluation in future studies. There were 7 subjects in Cohort 4, with 6 subjects randomly assigned to receive a single dose of Compound A (50 mg [n=3] or 75 mg [n=3]) and 1 subject randomly assigned to receive placebo. The doses for Cohorts 3 and 4 were selected based on PK/PD modeling of the data in Cohorts 1 and 2.
Subjects in Cohort 2 who had received Compound A 100 mg or placebo under fasted conditions (1st Treatment Period) also participated in an evaluation of food effect on the PK of Compound A (2nd Treatment Period). After a washout period of at least 13 days (or 5 half-lives of Compound A, whichever was longer), subjects were admitted to the clinic for baseline assessments (2nd Baseline Period) and then received a single dose of the same treatment (Compound A 100 mg or placebo) after consuming a high fat and high calorie meal over 30 minutes. Blood PK samples were collected at prespecified time points. Safety evaluations were also assessed. CSF was not collected for PD evaluation during the 2nd Treatment Period. A Follow Up Visit occurred on Day 10 of Treatment Period 2.
In Part C, there was 1 cohort of 8 healthy elderly subjects (65 to 85 years of age) randomly assigned to receive a single dose of Compound A 100 mg or placebo in a ratio of 6:2, respectively.
In Part D, 3 cohorts of healthy adult Japanese subjects were randomized in parallel. There were 7 subjects in each cohort and subjects were randomly assigned to receive single doses of Compound A (25, 100, or 400 mg) or placebo in a ratio of 6:1, respectively.
Blood samples for determination of plasma Compound A concentrations were collected from predose to 216 hours postdose. On Day 1, blood PK samples were collected at predose and postdose 0.5 (30 minutes), 1, 1.5, 2, 3, 4, 5, 6, 8, 12, and 18 hours. Thereafter, samples were collected on Day 2 (24 and 36 hours postdose), Day 3 (48 hours postdose), Day 4 (72 hours postdose), Day 5 (96 hours postdose), Day 6 (120 hours postdose), Day 7 (144 hours postdose), and Day 10 (216 hours postdose).
Blood samples for determination of plasma Compound A concentrations were collected from predose to 216 hours postdose. For all cohorts, blood PK samples were collected on Day 1 at predose and postdose at 0.5 (30 minutes), 1, 1.5, 2, 3, 4, 5, 6, 8, 10, 12, and 18 hours. […]

[1] = plasma, 400 mg, plasma, Non-Japanese Subjects (Parts A,B), single oral 400 mg
[2] = plasma, 400 mg, plasma, healthy adults (Parts A,B), single oral 400 mg, fasted
[3] = plasma, 800 mg, plasma, healthy adults (Parts A,B), single oral 800 mg, fasted
[4] = plasma, 1200 mg, plasma, healthy adults (Parts A,B), single oral 1200 mg, fasted
[5] = plasma, healthy adults (Parts A,B), single oral 10 mg, fasted
[6] = plasma, healthy adults (Parts A,B), single oral 25 mg, fasted
[7] = plasma, healthy adults (Parts A,B), single oral 50 mg, fasted
[8] = plasma, healthy adults (Parts A,B), single oral 75 mg, fasted
[9] = plasma, healthy adults (Parts A,B), single oral 100 mg, fasted
[10] = plasma, healthy adults (Parts A,B), single oral 200 mg, fasted
[11] = plasma, healthy adults (Parts A,B), single oral 400 mg, fasted
[12] = plasma, healthy adults (Parts A,B), single oral 800 mg, fasted
[13] = plasma, healthy adults (Parts A,B), single oral 1200 mg, fasted

COc1ncc(C)c(-c2ccc3c(c2)[nH]c(=O)c2cnn([C@H]4CCOC4)c23)c1C [Compound A, (S)-7-(2-methoxy-3,5-dimethylpyridin-4-yl)-1-(tetrahydrofuran-3-yl)-1H-pyrazolo[4,3-c]quin olin-4(5H)-one]
AUC(0-inf) [1]: 35800 ng·h/mL | Cmax (plasma, 400 mg, plasma, Non-Japanese Subjects (Parts A,B), single oral 400 mg, read-out: Cmax GM (% CV)): 827 ng/mL | Vd/F (plasma, 400 mg, plasma, Non-Japanese Subjects (Parts A,B), single oral 400 mg, read-out: Vz/F GM (% CV)): 511 L | half-life (plasma, 400 mg, plasma, Non-Japanese Subjects (Parts A,B), single oral 400 mg, read-out: t1/2 Mean (SD) (converted)): 34.5 h | Tmax [1]: 3 h | AUC(0-t) (plasma, 400 mg, plasma, healthy adults (Parts A,B), single oral 400 mg, fasted, read-out: AUC(0-24 h) GM): 12500 ng·h/mL | AUC(0-t) (plasma, 400 mg, plasma, healthy adults (Parts A,B), single oral 400 mg, fasted, read-out: AUC(0-30 h) GM): 15200 ng·h/mL | AUC(0-t) (plasma, 400 mg, plasma, healthy adults (Parts A,B), single oral 400 mg, fasted, read-out: AUC(0-72 h) GM): 27000 ng·h/mL | AUC(0-inf) [2]: 36300 ng·h/mL | AUC(0-t) (plasma, 400 mg, plasma, healthy adults (Parts A,B), single oral 400 mg, fasted, read-out: AUC(0-t) GM): 35500 ng·h/mL | Cmax (plasma, 400 mg, plasma, healthy adults (Parts A,B), single oral 400 mg, fasted, read-out: Cmax GM): 880 ng/mL | Vd/F (plasma, 400 mg, plasma, healthy adults (Parts A,B), single oral 400 mg, fasted, read-out: Vz/F GM): 493 L | half-life (plasma, 400 mg, plasma, healthy adults (Parts A,B), single oral 400 mg, fasted, read-out: t1/2 Mean (converted)): 33.2 h | Tmax [2]: 2.5 h | AUC(0-t) (plasma, 800 mg, plasma, healthy adults (Parts A,B), single oral 800 mg, fasted, read-out: AUC(0-24 h) GM): 29200 ng·h/mL | AUC(0-t) (plasma, 800 mg, plasma, healthy adults (Parts A,B), single oral 800 mg, fasted, read-out: AUC(0-30 h) GM): 34500 ng·h/mL | AUC(0-t) (plasma, 800 mg, plasma, healthy adults (Parts A,B), single oral 800 mg, fasted, read-out: AUC(0-72 h) GM): 54700 ng·h/mL | AUC(0-inf) [3]: 65000 ng·h/mL | AUC(0-t) (plasma, 800 mg, plasma, healthy adults (Parts A,B), single oral 800 mg, fasted, read-out: AUC(0-t) GM): 64300 ng·h/mL | Cmax (plasma, 800 mg, plasma, healthy adults (Parts A,B), single oral 800 mg, fasted, read-out: Cmax GM): 2570 ng/mL | Vd/F (plasma, 800 mg, plasma, healthy adults (Parts A,B), single oral 800 mg, fasted, read-out: Vz/F GM): 438 L | half-life (plasma, 800 mg, plasma, healthy adults (Parts A,B), single oral 800 mg, fasted, read-out: t1/2 Mean (converted)): 25.2 h | Tmax [3]: 3.55 h | AUC(0-t) (plasma, 1200 mg, plasma, healthy adults (Parts A,B), single oral 1200 mg, fasted, read-out: AUC(0-24 h) GM): 28500 ng·h/mL | AUC(0-t) (plasma, 1200 mg, plasma, healthy adults (Parts A,B), single oral 1200 mg, fasted, read-out: AUC(0-30 h) GM): 34800 ng·h/mL | AUC(0-t) (plasma, 1200 mg, plasma, healthy adults (Parts A,B), single oral 1200 mg, fasted, read-out: AUC(0-72 h) GM): 60600 ng·h/mL | AUC(0-inf) [4]: 79700 ng·h/mL | AUC(0-t) (plasma, 1200 mg, plasma, healthy adults (Parts A,B), single oral 1200 mg, fasted, read-out: AUC(0-t) GM): 78400 ng·h/mL | Cmax (plasma, 1200 mg, plasma, healthy adults (Parts A,B), single oral 1200 mg, fasted, read-out: Cmax GM): 1780 ng/mL | Vd/F (plasma, 1200 mg, plasma, healthy adults (Parts A,B), single oral 1200 mg, fasted, read-out: Vz/F GM): 666 L | half-life (plasma, 1200 mg, plasma, healthy adults (Parts A,B), single oral 1200 mg, fasted, read-out: t1/2 Mean (converted)): 31.9 h | Tmax [4]: 3.02 h | tlag Median (Min, Max) (plasma, single oral 100 mg, Fasted): 0 (0.00, 0.00) h | tlag Median (Min, Max) (plasma, single oral 100 mg, Fed (high-fat meal)): 0.49 (0.00, 0.88) h | CL/F GM [5]: 5.41 L/h | tlag Median [5]: 0.50 h | CL/F GM [6]: 5.76 L/h | tlag Median [6]: 0.00 h | CL/F GM [7]: 6.33 L/h | tlag Median [7]: 0.00 h | CL/F GM [8]: 7.57 L/h | tlag Median [8]: 0.00 h | AUC(0-inf) GM [9]: 15000 (20.0) h × ng/mL | CL/F GM [9]: 6.66 L/h and 6.66 (20.1) L/h | Cmax GM [9]: 373 (19.8) ng/mL | t1/2 Mean [9]: 28.6 (6.73) h | tlag Median [9]: 0.00 h | CL/F GM [10]: 8.93 L/h | tlag Median [10]: 0.00 h | CL/F GM [11]: 11.0 L/h | tlag Median [11]: 0.00 h | CL/F GM [12]: 12.3 L/h | tlag Median [12]: 0.00 h | CL/F GM [13]: 15.1 L/h | tlag Median [13]: 0.00 h | time to quantifiable plasma concentrations postdose (most subjects) (single doses of 10 to 1200 mg): ≤ 0.5 h
